Laboratory results published in publication PMC9322950 (Pharmaceutics, 2022).
Converted amounts (≈) assume the structure as drawn.

How the values were obtained:
[1] = Exposure–response relationship: Cox proportional hazards models on progression-free survival; format: in vivo, human; details: human, plasma, oral; model-predicted, including OFF-treatment periods; read-out: median AUCcum90 (mean cumulative AUC0-24 over 90 days)
Text: (§1) To consider the time lapse between radiologic exams (i.e., every 3 months), mean cumulative AUC0-24 over 90 days (AUCcum90) was then predicted. This variable was selected as the exposure metric to be tested as a time-dependent covariate for its influence on PFS. In consideration of the limited number of patients progressing (n = 29), we only included age at treatment initiation as an additional covariate, with an interaction term between age and exposure. Cox proportional hazards models were estimated in R (2021) to evaluate the effect of these covariates on PFS (significance level: p ≤ 0.05).

[2] = system: metastatic breast cancer; assay: as above; format: in vivo, human; details: 29 of 44 patients progressed
Text: as §1

[3] = based on PK/PD modeling; cited from earlier work
[4] = system: absolute neutrophil count (ANC); details: cited from earlier work
[5] = clinical; details: human, in vivo
Method: All included patients were ≥ 18 years old, diagnosed with an advanced stage breast cancer, and provided written informed consent. Blood samples taken at routinely scheduled visits plus extensive collection over a 10-12 h dosing interval were gathered during the study. Collected samples were centrifuged, and plasma was stored at -80 °C allowing its conservation until drug level measurements. […] Moreover, information was reconciled with data collected in the randomized controlled medication adherence study in a subset of patients. […] The chromatographic separation was performed on a column XSelect HSS T3 2.1 × 75 mm, 3.5 μm (Waters®, Milford, MA, USA) using a mobile phase composed of a gradient of ammonium acetate 2 mM (+0.1 formic acid) and acetonitrile (+0.1 formic acid). […] The method was validated over the clinically relevant concentration range, i.e., from 0.5 to 500 ng/mL. […] One- and two-compartment models with first- or zero-order absorption, potentially including an absorption lag time were tested. Inter-individual variability was modeled exponentially and tested sequentially on all parameters. Additive, proportional, and mixed models for residual error were compared. Potential associations between post hoc individual parameter estimates and demographic or clinical characteristics were first visually explored and then tested in the model. […] The characteristics available for testing their effect on PD parameters were as follows: age, body weight, ALK, BILT, gamma-glutamyltransferase (GGT), albumin, AST, ALT, eGFR, association with fulvestrant, chemotherapy in the previous treatment line, and POCT measurement. […] Baseline values of continuous covariates were tested on the base ANC parameter while time-varying values were tested on Emax. Continuous covariates were centered and normalized on their median value and tested by linear or allometric functions as appropriate. Missing data were imputed to the population median value. Categorical covariates were coded as 0 or 1, and missing data were first treated as an additional category and then regrouped according to their parameter estimates. The first-order conditional estimation method with interaction (FOCEI) was used for model fitting with the ADVAN4 TRANS4 subroutine for the PK model and the ADVAN6 subroutine defining a system of ordinary differential equations for the PK/PD model. Models were selected based on the improvement in standard goodness-of-fit plots, precision of parameter estimates and eta shrinkage. […] The covariate analysis was performed by forward inclusion (significant level for ΔOFV ≤ -3.84, p ≤ 0.05) followed by backward deletion (significant level for ΔOFV ≥ 7.88, p ≤ 0.005). The final PK/PD model was evaluated with a non-parametric bootstrap using 502 replicates of the initial dataset. The generated median parameters and their CI95% were compared to the final model estimates. In addition, prediction-corrected visual predictive checks (pc-VPCs) were performed to diagnose potential model misspecification by visually comparing observed concentrations with prediction percentiles.

[6] = system: absolute neutrophil count (ANC); assay: Semi-mechanistic PK/PD neutropenia model (exposure–toxicity relationship, ANC time course); format: in vivo, human; details: for Emax (maximum estimated drug effect on kprol) / ωEC50 (between-subject variability) / ωEmax (between-subject variability): final PK/PD model
Method: ANC was directly retrieved from the patients' medical records up to the date of the last PK observation. The most recent ANC value in the three months before palbociclib initiation was retained as the base value. Blood sampling for ANC measurement was performed either concomitantly or separately from that for palbociclib quantification. The proliferation, maturation, and homeostatic regulation of neutrophils were mimicked by a series of 5 compartments, as described in the model developed by Friberg et al.. This structural model was directly applied to our data. The first compartment represented stem cells and proliferating precursor cells in the bone marrow with the systematic renewal of proliferative cells' production modeled by the rate constant kprol. This compartment was followed by three transit compartments to account for the delay between proliferation and maturation according to the first-order rate constant ktr, defined as n+1/MTT , where MTT is the mean transit time of neutrophils. The last compartment characterized the blood circulation with the neutrophil elimination rate constant kcirc. The rate constants kprol, ktr, and […] assumed to be equal, as in the original model. […] ANCs were log-transformed before the analysis, and an additive error on the log scale was used to describe residual variability. Owing to long computation runtime, neutropenia model development was first performed by fixing the PK parameters that were estimated together with PD parameters in the final model. Potential associations between post hoc individual parameter estimates and demographic or clinical characteristics were first visually explored and then tested in the model. […] The characteristics available for testing their effect on PD parameters were as follows: age, body weight, ALK, BILT, gamma-glutamyltransferase (GGT), albumin, AST, ALT, eGFR, association with fulvestrant, chemotherapy in the previous treatment line, and POCT measurement. […] Despite high inter-individual variability on EC50, covariates were not tested on this parameter and were substituted by covariates on Emax as recommended in good practices for exposure-response analyses. Baseline values of continuous covariates were tested on the base ANC parameter while time-varying values were tested on Emax. Continuous covariates were centered and normalized on their median value and tested by linear or allometric functions as appropriate. Missing data were imputed to the population median value. Categorical covariates were coded as 0 or 1, and missing data were first treated as an additional category and then regrouped according to their parameter estimates. The first-order conditional estimation method with interaction (FOCEI) was used for model fitting with the ADVAN4 TRANS4 subroutine for the PK model and the ADVAN6 subroutine defining a system of ordinary differential equations for the PK/PD model. Models were selected based on the improvement in standard goodness-of-fit plots, precision of parameter estimates and eta shrinkage. […] The covariate analysis was performed by forward inclusion (significant level for ΔOFV ≤ -3.84, p ≤ 0.05) followed by backward deletion (significant level for ΔOFV ≥ 7.88, p ≤ 0.005). The final PK/PD model was evaluated with a non-parametric bootstrap using 502 replicates of the initial dataset. The generated median parameters and their CI95% were compared to the final model estimates. In addition, prediction-corrected visual predictive checks (pc-VPCs) were performed to diagnose potential model misspecification by visually comparing observed concentrations with prediction percentiles.

[7] = system: absolute neutrophil count (ANC); details: final PK/PD model, FIX at literature value; cited from earlier work
[8] = co-administration of PPIs in fasting conditions, healthy volunteers; cited from earlier work
[9] = bootstrap median (n = 502 samples)

## CC(=O)c1c(C)c2cnc(Nc3ccc(N4CCNCC4)cn3)nc2n(C2CCCC2)c1=O [palbociclib, Palbociclib]
[1]
  mean cumulative AUC0-24 over 90 days (AUCcum90): 1140 ng·h/mL
[2]
  median PFS: 17 months
[3]
  upper limit for trough concentration to avoid severe neutropenia: 100 ng/mL
[4]
  EC50 literature value: 0.0401 µg/mL (≈ 0.0896 µM)
[5]
  ALAG (absorption lag time): 2.0 h
  ALAG (absorption lag-time): 1.9 h
  CL (clearance): 68 L/h
  CLIPP,no food (clearance with concomitant coadministration of IPP under fasting conditions): 106 L/h
  Vc (central volume of distribution): 2730 L
  Vc/F (apparent central volume of distribution): 2778 L
[5]; CL (clearance)
  clearance: 1130 mL/min
[5]; CLIPP,no food (clearance with concomitant coadministration of IPP under fasting conditions)
  clearance: 1770 mL/min
[5]; Vc (central volume of distribution)
  Vd: 2700 L
[5]; Vc/F (apparent central volume of distribution)
  Vd/F: 2800 L
[6]; Homo sapiens, Neutrophil, base model, attributed to data sparseness, not retained, read-out: estimated EC50 (Emax model, before fixing)
  EC50: 0.0088 µg/mL (≈ 0.0197 µM)
[6]; [9]
  Emax (maximum estimated drug effect on kprol): 0.22
  ωEC50 (between-subject variability): 91 CV%
  ωEmax (between-subject variability): 16 CV%
[6]; estimate
  Emax (maximum estimated drug effect on kprol): 0.22
  ωEC50 (between-subject variability): 93 CV%
  ωEmax (between-subject variability): 15 CV%
[7]
  EC50 (palbociclib concentration corresponding to 50% of the maximum effect): 0.0401 µg/mL
[8]
  decrease in AUC: 62%
